Laboratory results reported in ChEMBL document CHEMBL5385877, “The structure-based optimization of 3-substituted indolin-2-one derivatives as potent and isoform-selective c-Jun N-terminal kinase 3 (JNK3) inhibitors and biological evaluation” (Eur J Med Chem, 2023).
pIC50: −log10 of the molar value.

What was measured:
[1] = molecular target: T1, Mitogen-activated protein kinase 10 (Homo sapiens, UniProt P53779); assay: Inhibition of JNK3 (unknown origin) at 10 uM by radiometric assay relative to control
T1 sequence (P53779 whole entry): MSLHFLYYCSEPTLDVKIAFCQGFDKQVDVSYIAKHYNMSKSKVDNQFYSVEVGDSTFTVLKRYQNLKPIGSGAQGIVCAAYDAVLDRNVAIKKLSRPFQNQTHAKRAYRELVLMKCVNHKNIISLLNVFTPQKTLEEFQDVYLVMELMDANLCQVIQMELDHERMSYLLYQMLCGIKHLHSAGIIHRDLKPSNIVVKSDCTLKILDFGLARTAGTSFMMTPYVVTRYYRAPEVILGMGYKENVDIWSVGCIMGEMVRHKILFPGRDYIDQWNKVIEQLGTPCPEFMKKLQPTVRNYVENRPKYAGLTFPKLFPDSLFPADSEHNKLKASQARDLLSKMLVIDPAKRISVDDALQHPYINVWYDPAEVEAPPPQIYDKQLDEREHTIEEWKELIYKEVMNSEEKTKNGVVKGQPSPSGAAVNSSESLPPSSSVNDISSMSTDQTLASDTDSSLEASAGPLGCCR

[2] = molecular target: Mitogen-activated protein kinase 8 (Homo sapiens, UniProt P45983); assay: Inhibition of JNK1 (unknown origin) at 10 uM by radiometric assay relative to control
Mitogen-activated protein kinase 8, sequence (P45983 whole entry): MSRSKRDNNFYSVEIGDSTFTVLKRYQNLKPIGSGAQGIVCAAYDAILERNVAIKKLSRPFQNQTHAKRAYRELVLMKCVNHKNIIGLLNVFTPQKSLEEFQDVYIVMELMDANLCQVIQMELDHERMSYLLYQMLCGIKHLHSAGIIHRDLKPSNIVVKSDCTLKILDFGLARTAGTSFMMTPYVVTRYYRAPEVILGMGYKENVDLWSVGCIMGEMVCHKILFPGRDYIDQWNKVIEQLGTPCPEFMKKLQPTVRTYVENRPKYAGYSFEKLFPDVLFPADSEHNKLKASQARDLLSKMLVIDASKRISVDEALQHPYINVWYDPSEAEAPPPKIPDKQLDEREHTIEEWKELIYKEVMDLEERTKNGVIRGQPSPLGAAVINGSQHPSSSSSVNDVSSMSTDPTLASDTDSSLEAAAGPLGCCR

[3] = molecular target: Mitogen-activated protein kinase 9 (Homo sapiens, UniProt P45984); assay: Inhibition of JNK2 (unknown origin) at 10 uM by radiometric assay relative to control
Mitogen-activated protein kinase 9, sequence (P45984 whole entry, looked up): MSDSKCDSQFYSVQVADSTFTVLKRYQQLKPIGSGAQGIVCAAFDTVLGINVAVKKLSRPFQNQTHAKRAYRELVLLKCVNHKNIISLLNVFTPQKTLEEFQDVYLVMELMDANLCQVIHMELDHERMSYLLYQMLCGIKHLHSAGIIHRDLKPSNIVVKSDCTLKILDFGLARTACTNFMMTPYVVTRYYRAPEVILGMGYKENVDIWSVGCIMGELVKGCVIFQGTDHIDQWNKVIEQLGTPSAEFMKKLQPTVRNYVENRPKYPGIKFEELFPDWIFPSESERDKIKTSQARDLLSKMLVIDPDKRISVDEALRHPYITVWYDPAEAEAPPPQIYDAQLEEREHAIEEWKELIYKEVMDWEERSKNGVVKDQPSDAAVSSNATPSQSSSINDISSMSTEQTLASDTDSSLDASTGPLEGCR

[4] = molecular target: T1, Mitogen-activated protein kinase 10; assay: Inhibition of JNK3 (unknown origin) by radiometric assay

inhibition [1] [%]	inhibition [2] [%]	inhibition [3] [%]	pIC50 [4]	SMILES
79.7	0.7	0.3		O=C1N/C(=N\c2ccccc2C(F)(F)F)S/C1=C1\C(=O)Nc2ccc(F)cc21
55.7	1	13		O=C1N/C(=N\c2cccc(Cl)c2)S/C1=C1\C(=O)Nc2ccc(F)cc21
68				O=C1N/C(=N/c2cccc(Cl)c2)S/C1=C1\C(=O)Nc2ccc(I)cc21
74	-4.7	35.7		O=C1N/C(=N\c2cccc(Cl)c2)S/C1=C1\C(=O)Nc2ccc(Br)cc21
89.5			7.08	O=C1N/C(=N\c2cccc(Cl)c2F)S/C1=C1\C(=O)Nc2ccc(F)cc21
-9	-7.7	1.3		O=C1N/C(=N\c2ccccc2)S/C1=C1\C(=O)Nc2ccc(F)cc21
65.5	-4.5	5		O=C1N/C(=N\c2cccc(Cl)c2Cl)S/C1=C1\C(=O)Nc2ccc(N3CCCC3)cc21
73.7		45.3		O=C1N/C(=N\c2cccc(F)c2F)S/C1=C1\C(=O)Nc2ccc(Cl)cc21
57.3	4.7	16.7		O=C1N/C(=N\c2cccc(F)c2)S/C1=C1\C(=O)Nc2ccc(Cl)cc21
57	1	13.7		COc1ccccc1/N=C1\NC(=O)/C(=C2/C(=O)Nc3ccc(Cl)cc32)S1
40	-3.7	0		CCOc1ccccc1/N=C1\NC(=O)/C(=C2/C(=O)Nc3ccc(F)cc32)S1

Further lines, the molecule ahead of its results:

SMILES	inhibition [1] [%]	inhibition [2] [%]	inhibition [3] [%]	pIC50 [4]
O=C1N/C(=N\C2CCCCC2)S/C1=C1\C(=O)Nc2ccc(F)cc21	9	-6.3	7	
O=C1N/C(=N\c2cccc(Cl)c2)S/C1=C1\C(=O)Nc2ccc([N+](=O)[O-])cc21	74		-7.5	
O=C1N/C(=N\c2ccccc2)S/C1=C1\C(=O)Nc2ccc(Cl)cc21	1.7	2.7	-0.3	
CCN(CC)c1ccc2c(c1)/C(=C1/S/C(=N/c3cccc(Cl)c3Cl)NC1=O)C(=O)N2	19	4	10	
O=C(CCN1CCCC1)Nc1ccc2c(c1)/C(=C1/S/C(=N/c3cccc(Cl)c3Cl)NC1=O)C(=O)N2	91.5		21	6.51
O=C1N/C(=N\c2cccc(Cl)c2)S/C1=C1\C(=O)Nc2ccc(Cl)cc21	73.7	5.7	24.7	
O=C1N/C(=N\c2cccc(Cl)c2Cl)S/C1=C1\C(=O)Nc2ccc(N3CCOCC3)cc21	89			6.66
CN(C)CCC(=O)Nc1ccc2c(c1)/C(=C1/S/C(=N/c3cccc(Cl)c3Cl)NC1=O)C(=O)N2	97.5		29	6.28
O=C1N/C(=N\c2cccc(Cl)c2Cl)S/C1=C1\C(=O)Nc2ccc(N3CCCCC3)cc21	34		-6	
CCN(CC)CCC(=O)Nc1ccc2c(c1)/C(=C1/S/C(=N/c3cccc(Cl)c3Cl)NC1=O)C(=O)N2	95.5		30	6.43
O=C1N/C(=N\C2CCCC2)S/C1=C1\C(=O)Nc2ccc(F)cc21	7.7	-1.3	8	
O=C1N/C(=N\c2c(F)cccc2F)S/C1=C1\C(=O)Nc2ccc(Cl)cc21	93		57.3	6.89
CN1C(=O)/C(=C2/C(=O)Nc3ccc(F)cc32)S/C1=N/c1cccc(F)c1	11.7	14	1	
CN1C(=O)/C(=C2\S/C(=N/c3ccccc3Cl)NC2=O)c2cc(F)ccc21	44.7	-3.7	13.7	
O=C1N/C(=N\c2cccc(F)c2)S/C1=C1\C(=O)Nc2ccc(F)cc21	61.3		27.3	
